“Also recorded” adds a separate entry of the source.
Legend:
HIV = HIV release from chronically infected cells (Biomek 1000); assay type: cell-based; details: FIGS. 6-19
Excerpt: A series of experiments and which are illustrated graphically in FIGS. 6 through 34, respectively, were designed to detect two extremes. In particular the tests were designed to detect the inhibition of viral release and/or the release of virus which has a reduced ability to infect other cells. This reduced ability to infect other cells is represented, for example, by glycosylation inhibitors, the direct effect on virus release is represented by acylation inhibitors, RT inhibitors and melittin (Seq. ID NO:1). The most important feature of this experimental design, however, is to detect the toxicity of melittin. The present experiments were carried out on both the astrocytoma cell line LC5-HIV (cloned infected cells) and T-lymphocytoma cell line KE37-1/IIIβ (cloned infected cells with HTLV-IIIβ). In both cases the results were essentially identical.
In the present series of experiments HIV release was tested by a fully automated laboratory robot system and which is manufactured by Beckman Instruments as the Biomek 1000. This system performed the following steps. First, chronically infected cells (cloned) are plated in microtiter plates and grown for a period of seven days. They are then challenged by melittin (Seq. ID NO:1) during this period either for the final day or throughout the period as shown in the figures. The number of living cells are quantified by MTT, that is by a metabolic (dehydrogenase) test. The MTT test is automatically performed. The toxic effect is detected at the time of the experiment and not in a separate control experiment. Furthermore, the supernatant, and which contains released virus cells from the period of time which elapsed from the last wash, and which may vary from 24 hours to 7 days, is collected from the culture, and an aliquot is saved for virus quantification by employing antigen or viral enzyme reverse transcriptase (RT). Furthermore, an aliquot is added to a culture of uninfected cells in microtiter plates for subsequent measurement of the ability of the virus cells to reinfect these uninfected cells. In this regard, the number of infected cells is automatically quantified by an immunoperoxidase staining technique. The test results, as shown, are expressed in terms of toxicity of the melittin (MTT test); the release of HIV from the primary culture (RT test); and the ability of the released virus to infect previously uninfected cells.

Rauscher leukemia virus = experiment: Example 2: Rauscher leukemia virus (RLV) model; assay type: in vivo, Balb/c mice
Excerpt: As noted earlier, the Rauscher leukemia virus (RLV) model has been used successfully to test a number of compounds like nucleoside analogues, that is, AZT, and which has been utilized, heretofore, to inhibit HIV replication. This is discussed in further detail in the article authored by R. M. Ruprechet, et. al. and which is entitled Development of Antiviral Treatment Strategies in Murin Models, RES. Human Retroviruses, 8,997-1011 (1992). Those skilled in the art will recognized that RLV belongs to the Onkoviruses, which is a subfamily of the retrovirus family, and not to the Lentiviruses family, such as is the case with HIV. Therefore, the RLV model provides a suitable basis upon which one may test substances which interfere with the replication steps which are common, or similar, among related retroviruses. As noted earlier, inasmuch as the melittin (Seq. ID NO:1) appears to inhibit HIV transcription in vitro, then it appears that RLV is a suitable model to test the effect of melittin on in vivo replication inhibition.
The source of virus for the present example was secured from the leukemic spleens of RLV infected Balb/c mice. The virus titer of the pool of leukemic spleens was determined by titration. This titration method is discussed in the article authored by Schmidt et al., "Endogenous Murine Leukemia Viruses: frequency of radiation-activation and novel pathogenic effects of viral isolates." Leukemia Research 12, 393-403, (1988). The spleens were secured from 8 to 10 week old inbreed female Balb/c mice, and further from in mouse embryo fibroblasts. As noted earlier, virus replication in mice normally has been determined by the development of leukemia in the spleen. Additionally, the determination of in vitro virus replication has been measured heretofore by the number of virus protein producing cells which are stained with anti-RLV antibodies in an immuno-peroxidase staining test (IPF). Aliquots of the virus solutions were stored in liquid nitrogen and were again titrated in the fashion as noted above.
Stock virus solutions were diluted to provide solutions having a virus concentration of approximately 7×10^6 infectious units per milliliter. Following preparation of the solutions, 0.5 ml of these viral solutions were injected intraperitoneally (ip) into Balb/c mice that were 8 to 10 weeks old. […] As will be recognized by a study of FIG. 43 and FIG. 48, and following infection with the RLV, nearly 100% of the mice developed leukemia (splenomegaly) within approximately three weeks. […] The mean spleen weight development became less prominent. This is best seen by reference to FIG. 48 and in particular groups 8, 9 and 10.

[1] = all treated groups, regardless of schedule
[2] = group 1, after infection, intervals of 4 days
[3] = group 2, after infection, intervals of 2 days
[4] = group 3, after infection, daily

## Gly-Ile-Gly-Ala-Val-Leu-Lys-Val-Leu-Thr-Thr-Gly-Leu-Pro-Ala-Leu-Ile-Ser-Trp-Ile-Lys-Arg-Lys-Arg-Gln-Gln-Amide [melittin]
HIV
  inhibition of viral cell (HIV) release from infected cells, in words: inhibition of viral cell release from infected cells; also recorded: inhibited HIV release
Rauscher leukemia virus; [1]
  animals that developed leukemia: 70%
  mean spleen weight: 1.2 grams
Rauscher leukemia virus; days 5 and 10, five administrations before and six after infection
  spleen weights, treated vs untreated, in words: quite similar with only a slight difference appearing on day 10
Rauscher leukemia virus; days 5 and 15 (so in the source)
  leukemic animals, in words: no leukemic animals could be found on days 5 and 15
Rauscher leukemia virus; [2]
  leukemic animals: 4 out of 6
  mean spleen weight: 1.1 grams
Rauscher leukemia virus; [3]
  leukemic animals: 5 out of 6
  mean spleen weight: 1.3 grams
Rauscher leukemia virus; group 2, pre-treated, 5 injections, FIG. 45
  mean spleen weight: 1.5 grams
Rauscher leukemia virus; [4]
  leukemic animals: 5 out of 6
  mean spleen weight: 1.1 grams
Rauscher leukemia virus; group 3, pre-treated, 4 injections, FIG. 45
  mean spleen weight: 1.5 grams
Rauscher leukemia virus; group 4, pre-treated, 3 injections, FIG. 45
  mean spleen weight: 1.3 grams
Rauscher leukemia virus; group 5, once before infection and five times later in four day intervals
  mean spleen weight: approximately 1.3 grams
Rauscher leukemia virus; group 6, day 15, ten analyzed
  number of leukemic animals: one
Rauscher leukemia virus; group 6, single injection 12 hours before infection
  mean spleen weight: 1.1 grams
Rauscher leukemia virus; group 7, single injection 24 hours before infection
  mean spleen weight: 0.7 grams
Rauscher leukemia virus; group 8, day 21
  animals that develop leukemia: 7 out of 10
  mean spleen weight: 1.2 grams
Rauscher leukemia virus; group 8, single injection 6 hours before infection
  mean spleen weight: 0.9 grams
Rauscher leukemia virus; pre-treated animals, FIG. 45
  development of leukemia, in words: nearly all of the pre-treated animals also developed leukemia
